Measurements taken from patent publication US12404318B2, “Combination HBV therapy” (priority 2018, dated 2025).

Test system: HBV (rAAV8-1.3HBV strain ayw, D type)
Assay: Combination therapy study in AAV-HBV mice (Example 1): serum HBsAg and HBV DNA
Assay type: in vivo, C57BL/6 mice
Description: The mice (C57BL/6 strain) were inoculated with the following amount of rAAV8-1.3HBV strain ayw, D type: 1.0×10^11 viral genomes per mouse in 200 μl volume via tail veins injection. Four weeks after viral inoculation, treatment with test compounds was initiated.
Entecavir was administered orally once per day.

In the case of “HBV02: chemically synthesized double-stranded oligonucleotide (siRNA) linked to a ligand with three GalNAc residues; sense SEQ ID NO:7, antisense SEQ ID NO:8 (sense GUGUGCACUUCGCUUCACA; antisense UGUGAAGCGAAGUGCACACUU; triantennary GalNAc ligand attached, chemically modified, pattern not given here)”, the “Reduction of serum HBV DNA (viral load) relative to the saline control” value (AAV/HBV-infected C57BL/6 mice, HBV02 3 mg/kg, HBC34 antibody (HBC34-v7-mu-IgG2a) 15 mg/kg, alone or combined, FIGS. 2A, 2B) is reported as about 0.5 log10, the “Reduction of serum HBsAg relative to the saline control” value (AAV/HBV-infected C57BL/6 mice, HBV02 3 mg/kg, HBC34 antibody (HBC34-v7-mu-IgG2a) 15 mg/kg, alone or combined, FIGS. 3A, 3B) is reported as 1 log10 and the “HBsAg levels from mouse serum (average log HBsAg content)” value (Treatment 1: HBV02 3 mg/kg, day 0 post-dose) is reported as 4.55 log IU/ml. For the same compound, the “HBsAg levels from mouse serum (average log HBsAg content)” value (Treatment 1: HBV02 3 mg/kg, day 3 post-dose) was 3.99 log IU/ml, the “HBsAg levels from mouse serum (average log HBsAg content)” value (Treatment 1: HBV02 3 mg/kg, day 7 post-dose) was 3.67 log IU/ml and the “HBsAg levels from mouse serum (average log HBsAg content)” value (Treatment 1: HBV02 3 mg/kg, day 10 post-dose) was 3.59 log IU/ml. The “HBsAg levels from mouse serum (average log HBsAg content)” value (Treatment 1: HBV02 3 mg/kg, day 14 post-dose) was 3.71 log IU/ml, the “HBsAg levels from mouse serum (average log HBsAg content)” value (Treatment 1: HBV02 3 mg/kg, day 17 post-dose) was 3.69 log IU/ml and the “HBsAg levels from mouse serum (average log HBsAg content)” value (Treatment 1: HBV02 3 mg/kg, day 21 post-dose) was 3.60 log IU/ml. For the same compound, the “HBsAg levels from mouse serum (average log HBsAg content)” value (Treatment 1: HBV02 3 mg/kg, day 24 post-dose) was 3.57 log IU/ml, the “HBsAg levels from mouse serum (average log HBsAg content)” value (Treatment 1: HBV02 3 mg/kg, day 28 post-dose) was 3.57 log IU/ml and the “HBsAg levels from mouse serum (average log HBsAg content)” value (Treatment 1: HBV02 3 mg/kg, day 31 post-dose) was 3.81 log IU/ml. For the same compound, the “HBsAg levels from mouse serum (average log HBsAg content)” value (Treatment 1: HBV02 3 mg/kg, day 35 post-dose) was 3.72 log IU/ml, the “HBsAg levels from mouse serum (average log HBsAg content)” value (Treatment 1: HBV02 3 mg/kg, day 38 post-dose) was 3.72 log IU/ml and the “HBsAg levels from mouse serum (average log HBsAg content)” value (Treatment 1: HBV02 3 mg/kg, day 42 post-dose) was 3.55 log IU/ml.

With `C=C1[C@H](CO)[C@@H](O)C[C@@H]1n1cnc2c(=O)[nH]c(N)nc21` [ETV, entecavir, reference compound] the “HBsAg levels from mouse serum (average log HBsAg content)” value (Treatment 13: ETV 0.001 mg/kg, day 0 post-dose) was 4.54 log IU/ml, the “HBsAg levels from mouse serum (average log HBsAg content)” value (Treatment 13: ETV 0.001 mg/kg, day 3 post-dose) was 4.54 log IU/ml and the “HBsAg levels from mouse serum (average log HBsAg content)” value (Treatment 13: ETV 0.001 mg/kg, day 7 post-dose) was 4.39 log IU/ml. For the same compound, the “HBsAg levels from mouse serum (average log HBsAg content)” value (Treatment 13: ETV 0.001 mg/kg, day 10 post-dose) was 4.29 log IU/ml, the “HBsAg levels from mouse serum (average log HBsAg content)” value (Treatment 13: ETV 0.001 mg/kg, day 14 post-dose) was 4.28 log IU/ml and the “HBsAg levels from mouse serum (average log HBsAg content)” value (Treatment 13: ETV 0.001 mg/kg, day 17 post-dose) was 4.24 log IU/ml. For the same compound, the “HBsAg levels from mouse serum (average log HBsAg content)” value (Treatment 13: ETV 0.001 mg/kg, day 21 post-dose) was 4.13 log IU/ml, the “HBsAg levels from mouse serum (average log HBsAg content)” value (Treatment 13: ETV 0.001 mg/kg, day 24 post-dose) was 4.21 log IU/ml and the “HBsAg levels from mouse serum (average log HBsAg content)” value (Treatment 13: ETV 0.001 mg/kg, day 28 post-dose) was 3.98 log IU/ml. The “HBsAg levels from mouse serum (average log HBsAg content)” value (Treatment 13: ETV 0.001 mg/kg, day 31 post-dose) was 4.02 log IU/ml, the “HBsAg levels from mouse serum (average log HBsAg content)” value (Treatment 13: ETV 0.001 mg/kg, day 35 post-dose) was 3.88 log IU/ml and the “HBsAg levels from mouse serum (average log HBsAg content)” value (Treatment 13: ETV 0.001 mg/kg, day 38 post-dose) was 3.92 log IU/ml. The “HBsAg levels from mouse serum (average log HBsAg content)” value (Treatment 13: ETV 0.001 mg/kg, day 42 post-dose) was 3.84 log IU/ml.
